What was measured:
Type in all cases: in vivo
[1] = test system: Italian ryegrass (Lolium multiflorum); assay: Test B pre-/postemergence plant response
Method in brief: (§1)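 Visual scoring from 0 (no effect) to 100 (complete control) against untreated controls was done 13 to 15 days after greenhouse treatment. Chemicals were formulated in a surfactant-containing non-phytotoxic solvent and applied to soil preemergence or to 1- to 4-leaf (2-18 cm) plants postemergence.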

[2] = test system: bermudagrass (Cynodon dactylon); assay: Test B pre-/postemergence plant response
Method in brief: as §1

[3] = test system: catchweed bedstraw (Galium aparine); assay: Test B pre-/postemergence plant response; details: Preemergence
Method in brief: as §1

[4] = test system: giant foxtail (Setaria faberii); assay: Test B pre-/postemergence plant response
Method in brief: as §1

[5] = test system: goosegrass (Eleusine indica); assay: Test B pre-/postemergence plant response
Method in brief: as §1

[6] = test system: johnsongrass (Sorghum halepense); assay: Test B pre-/postemergence plant response
Method in brief: as §1

kochia (Kochia scoparia) = assay: Test B pre-/postemergence plant response
Method in brief: as §1

[7] = test system: lambsquarters (Chenopodium album); assay: Test B pre-/postemergence plant response
Method in brief: as §1

[8] = test system: large crabgrass (Digitaria sanguinalis); assay: Test B pre-/postemergence plant response
Method in brief: as §1

[9] = test system: morningglory (Ipomoea coccinea); assay: Test B pre-/postemergence plant response
Method in brief: as §1

[10] = test system: pigweed (Amaranthus retroflexus); assay: Test B pre-/postemergence plant response
Method in brief: as §1

soybean (Glycine max) = assay: Test B pre-/postemergence plant response
Method in brief: as §1

[11] = test system: velvetleaf (Abutilon theophrasti); assay: Test B pre-/postemergence plant response
Method in brief: as §1

rice (Oryza sativa) = assay: Test B flooded paddy test plant response
Method in brief: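 Rice, umbrella sedge, ducksalad and barnyardgrass at 2-leaf stage; pots flooded to 3 cm, compounds applied into paddy water, depth held throughout. Greenhouse 13 to 15 days, then visual rating vs untreated controls on 0–100 scale (0 no effect, 100 complete control); dash means no test result.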

[12] = 8 g ai/ha, postemergence, 0-100 scale
[13] = 16 g ai/ha, postemergence, 0-100 scale
[14] = Postemergence, 31 g ai/ha, scale 0 to 100
[15] = Postemergence, 62 g ai/ha, scale 0 to 100, 0 no effect, 100 complete control
[16] = Preemergence, 8 g ai/ha, scale 0 to 100 (0 no effect, 100 complete control)
[17] = Preemergence, 31 g ai/ha, scale 0 to 100 (0 no effect, 100 complete control)
[18] = Preemergence, 62 g ai/ha, 0 to 100 scale, 0 no effect, 100 complete control
[19] = Preemergence, 16 g ai/ha, scale 0 to 100

CCc1c(C)c(-c2ccc(Br)cc2)nn1-c1c(O)cnn(C)c1=O [Compound 83]
80: Foxtail, Giant plant response rating [4, 12] | Foxtail, Giant plant response rating [4, 16] | Goosegrass plant response rating [5, 19] | Crabgrass, Large plant response rating [8, 12]
20: Plant response rating, Pigweed [10, 15] | Plant response rating, Velvetleaf [11, 15]
65: Bermudagrass plant response rating [2, 13] | Bermudagrass plant response rating ([2]; Preemergence, 16 g ai/ha, scale 0 to 100 (0 no effect, 100 complete control)) | Johnsongrass plant response rating [6, 12]
50: Kochia plant response rating (kochia (Kochia scoparia); [16])
95: Plant response rating, Goosegrass [5, 17] | Plant response rating, Johnsongrass [6, 17] | Crabgrass, Large plant response rating [8, 13]
40: Bermudagrass plant response rating [2, 12]
0: Galium plant response rating ([3]; 8 g ai/ha, scale 0 to 100 (0 no effect, 100 complete control)) | Plant response rating, Galium ([3]; 31 g ai/ha, scale 0 to 100 (0 no effect, 100 complete control)) | Plant response rating, Galium ([3]; 62 g ai/ha, 0 to 100 scale, 0 no effect, 100 complete control) | Galium plant response rating ([3]; 16 g ai/ha, scale 0 to 100) | Goosegrass plant response rating [5, 12] | Kochia plant response rating (kochia (Kochia scoparia); [12]) | Kochia plant response rating (kochia (Kochia scoparia); [13]) | Plant response rating, Kochia (kochia (Kochia scoparia); [14]) | Plant response rating, Kochia (kochia (Kochia scoparia); [15]) | Lambsquarters plant response rating [7, 12] | Lambsquarters plant response rating [7, 13] | Plant response rating, Lambsquarters [7, 14] | Plant response rating, Lambsquarters [7, 15] | Crabgrass, Large plant response rating [8, 16] | Morningglory plant response rating [9, 12] | Morningglory plant response rating [9, 13] | Plant response rating, Morningglory [9, 14] | Plant response rating, Morningglory [9, 15] | Morningglory plant response rating [9, 16] | Plant response rating, Morningglory [9, 17] | Plant response rating, Morningglory [9, 18] | Morningglory plant response rating [9, 19] | Pigweed plant response rating [10, 12] | Pigweed plant response rating [10, 13] | Plant response rating, Pigweed [10, 14] | Pigweed plant response rating [10, 16] | Plant response rating, Pigweed [10, 17] | Plant response rating, Pigweed [10, 18] | Pigweed plant response rating [10, 19] | Soybean plant response rating (soybean (Glycine max); [12]) | Soybean plant response rating (soybean (Glycine max); [13]) | Plant response rating, Soybean (soybean (Glycine max); [14]) | Plant response rating, Soybean (soybean (Glycine max); [15]) | Soybean plant response rating (soybean (Glycine max); [16]) | Plant response rating, Soybean (soybean (Glycine max); [17]) | Plant response rating, Soybean (soybean (Glycine max); [18]) | Soybean plant response rating (soybean (Glycine max); [19]) | Velvetleaf plant response rating [11, 12] | Velvetleaf plant response rating [11, 13] | Plant response rating, Velvetleaf [11, 14] | Velvetleaf plant response rating [11, 16] | Plant response rating, Velvetleaf [11, 17] | Plant response rating, Velvetleaf [11, 18] | Velvetleaf plant response rating [11, 19] | Plant response rating, Rice (rice (Oryza sativa); Flood (flooded paddy test), 125 g ai/ha, scale 0 to 100, 0 no effect, 100 complete control) | Plant response rating, Rice (rice (Oryza sativa); Flood (flooded paddy test), 250 g ai/ha, scale 0 to 100, 0 no effect, 100 complete control) | Plant response rating, Rice (rice (Oryza sativa); Flood, 31 g ai/ha, scale 0 to 100) | Plant response rating, Rice (rice (Oryza sativa); Flood, 62 g ai/ha, scale 0 to 100)
30: Ryegrass, Italian plant response rating [1, 16]
55: Bermudagrass plant response rating [2, 16] | Plant response rating, Goosegrass [5, 14] | Goosegrass plant response rating [5, 16] | Johnsongrass plant response rating [6, 16]
70: Johnsongrass plant response rating [6, 13]
98: Ryegrass, Italian plant response rating [1, 13] | Plant response rating, Johnsongrass [6, 14] | Plant response rating, Johnsongrass [6, 18]
60: Plant response rating, Goosegrass [5, 15]
90: Plant response rating, Bermudagrass [2, 15] | Foxtail, Giant plant response rating [4, 13]
45: Goosegrass plant response rating [5, 13]
100: Plant response rating, Ryegrass, Italian [1, 14] | Plant response rating, Ryegrass, Italian [1, 15] | Plant response rating, Ryegrass, Italian [1, 17] | Plant response rating, Ryegrass, Italian [1, 18] | Plant response rating, Bermudagrass [2, 17] | Plant response rating, Bermudagrass [2, 18] | Plant response rating, Foxtail, Giant [4, 14] | Plant response rating, Foxtail, Giant [4, 15] | Plant response rating, Foxtail, Giant [4, 17] | Plant response rating, Foxtail, Giant [4, 18] | Foxtail, Giant plant response rating [4, 19] | Plant response rating, Goosegrass [5, 18] | Plant response rating, Johnsongrass [6, 15] | Plant response rating, Kochia (kochia (Kochia scoparia); [17]) | Plant response rating, Kochia (kochia (Kochia scoparia); [18]) | Kochia plant response rating (kochia (Kochia scoparia); [19]) | Lambsquarters plant response rating [7, 16] | Plant response rating, Lambsquarters [7, 17] | Plant response rating, Lambsquarters [7, 18] | Lambsquarters plant response rating [7, 19] | Plant response rating, Crabgrass, Large [8, 14] | Plant response rating, Crabgrass, Large [8, 15] | Plant response rating, Crabgrass, Large [8, 18]
35: Crabgrass, Large plant response rating [8, 19]
85: Ryegrass, Italian plant response rating [1, 12] | Ryegrass, Italian plant response rating [1, 19] | Plant response rating, Bermudagrass [2, 14] | Johnsongrass plant response rating [6, 19] | Plant response rating, Crabgrass, Large [8, 17]

— patent publication US20100267561A1, “HERBICIDAL PYRIDAZINONE DERIVATIVES” (priority 2007, published 2010)
